Patent US20240059727A1, “METHOD OF MAKING NICOTINAMIDE RIBOFURANOSIDE SALTS BY SALT METATHESIS, THE CRYSTALLINE FORM OF ITS TOSYLATE SALT AND THE CO-CRYSTALLIZED FORM OF ITS CHLORIDE:IODIDE SALT” (BIOSYNTH AG, priority 2021, published 2024)

Assay: Solubility in methanol
Details: volume of methanol per 1 g salt; lower volume = better solubility

Row | methanol needed for dissolving 1 g of the salt [mL] | Compound
1 | 40 | NC(=O)c1ccc[n+]([C@@H]2O[C@H](CO)[C@@H](O)[C@H]2O)c1.[Cl-] [NR·Cl, nicotinamide-β-D-ribofuranoside chloride]
2 | 50 | NC(=O)c1ccc[n+](C2OC(CO)C(O)C2O)c1.[Br-] [NR·Br, nicotinamide-β-D-ribofuranoside bromide]

Row | Compound | methanol needed for dissolving 1 g of the salt [mL]
3 | nicotinamide-β-D-ribofuranoside tosylate [NR·p-tosylate] | 15
